Source: PubChem BioAssay (NCI)
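Each compound was tested at five concentrations against cells in 96-well plates for 48 hours. GI50: concentration for 50% inhibition of growth. At the TGI there is no net growth.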

Legend:
Assay in all cases: growth of human tumour cells (NCI), 48 h
[1] = system: HCT-15 colon
[2] = system: SF-295 CNS
[3] = system: MCF7 breast
[4] = system: NCI-H226 lung
[5] = system: LOX IMVI melanoma
[6] = system: M14 melanoma
[7] = system: SR leukemia
[8] = system: U251 CNS
[9] = system: MOLT-4 leukemia
[10] = system: MALME-3M melanoma
[11] = system: CCRF-CEM leukemia
[12] = system: HT29 colon
[13] = system: SN12C renal
[14] = system: SK-MEL-2 melanoma
[15] = system: HS 578T breast
[16] = system: UO-31 renal
[17] = system: SNB-19 CNS
[18] = system: DU-145 prostate
[19] = system: RXF 393 renal
[20] = system: A549 NSCLC
[21] = system: HCT-116 colon
[22] = system: HL-60(TB) leukemia
[23] = system: OVCAR-4 ovarian
[24] = system: SNB-75 CNS
[25] = system: MDA-MB-435
[26] = system: SF-539 CNS
[27] = system: RPMI-8226 leukemia
[28] = system: SK-MEL-5 melanoma
[29] = system: UACC-257 melanoma
[30] = system: TK-10 renal
[31] = system: HOP-62 NSCLC
[32] = system: ACHN renal
[33] = system: NCI-H460 lung
[34] = system: EKVX NSCLC
[35] = system: HOP-92 NSCLC
[36] = system: COLO 205 colon
[37] = system: MDA-MB-231 breast
[38] = system: NCI/ADR-RES ovarian
[39] = system: HCC-2998 colon
[40] = system: OVCAR-5 ovarian
[41] = system: SK-MEL-28 melanoma
[42] = system: NCI-H522 lung
[43] = system: UACC-62 melanoma
[44] = system: K-562 leukemia
[45] = system: T-47D breast
[46] = system: OVCAR-3 ovarian
[47] = system: BT-549 breast
[48] = system: A498 renal
[49] = system: 786-0 renal
[50] = system: IGROV1 ovarian
[51] = system: CAKI-1 renal
[52] = system: KM12 colon
[53] = system: PC-3 prostate
[54] = system: OVCAR-8 ovarian
[55] = system: SW-620 colon
[56] = system: SF-268 CNS
[57] = system: NCI-H23 lung
[58] = system: SK-OV-3 ovarian

Structure (SMILES): CC(=O)Oc1c(-c2ccccc2)oc2ccccc12
- TGI [1]: 5.97 µM
- TGI [2]: 2.58 µM
- TGI [3]: 4.3 µM
- TGI [4]: 5.2 µM
- TGI [5]: 1.41 µM
- TGI [6]: 5.17 µM
- TGI [7]: 1.59 µM
- TGI [8]: 2.76 µM
- TGI [9]: 4.53 µM
- TGI [10]: 5.54 µM
- TGI [11]: 3.93 µM
- TGI [12]: 5.75 µM
- TGI [13]: 4.68 µM
- TGI [14]: 4.35 µM
- TGI [15]: 6.38 µM
- TGI [16]: 3.96 µM
- TGI [17]: 11.6 µM
- TGI [18]: 13.9 µM
- TGI [19]: 3.59 µM
- TGI [20]: 3.33 µM
- TGI [21]: 4.12 µM
- TGI [22]: 2.69 µM
- TGI [23]: 9.85 µM
- TGI [24]: 6.35 µM
- TGI [25]: 6.95 µM
- TGI [26]: 2.86 µM
- TGI [27]: 2.67 µM
- TGI [28]: 2.8 µM
- TGI [29]: 6.04 µM
- TGI [30]: 14 µM
- TGI [31]: 6 µM
- TGI [32]: 3.28 µM
- TGI [33]: 2.44 µM
- TGI [34]: 3.99 µM
- TGI [35]: 5.4 µM
- TGI [36]: 3.77 µM
- TGI [37]: 2.86 µM
- TGI [38]: 9.29 µM
- TGI [39]: 2.8 µM
- TGI [40]: 3.66 µM
- TGI [41]: 6.56 µM
- TGI [42]: 5 µM
- TGI [43]: 8.49 µM
- TGI [44]: 4.13 µM
- TGI [45]: 5.9 µM
- TGI [46]: 6.02 µM
- TGI [47]: 7.05 µM
- TGI [48]: 9.72 µM
- TGI [49]: 14.2 µM
- TGI [50]: 6.56 µM
- TGI [51]: 2.62 µM
- TGI [52]: 2.35 µM
- TGI [53]: 4.55 µM
- TGI [54]: 12.5 µM
- TGI [55]: 11.8 µM
- TGI [56]: 6.3 µM
- TGI [57]: 4.15 µM

Structure (SMILES): CCN(CC)Cc1cc(Nc2c3ccc(Cl)cc3nc3ccc(OC)cc23)ccc1O
- GI50 [2]: 3.5 µM
- TGI [2]: 17.1 µM
- GI50 [3]: 1.6 µM
- TGI [3]: 4.04 µM
- GI50 [4]: 7.28 µM
- TGI [4]: 21.4 µM
- GI50 [5]: 2 µM
- TGI [5]: 3.82 µM
- GI50 [6]: 1.88 µM
- TGI [6]: 3.43 µM
- GI50 [7]: 3.32 µM
- TGI [7]: 8.99 µM
- GI50 [8]: 3.04 µM
- TGI [8]: 13.2 µM
- GI50 [9]: 4.14 µM
- TGI [9]: 12.2 µM
- GI50 [10]: 2.13 µM
- TGI [10]: 4.21 µM
- GI50 [11]: 3.86 µM
- TGI [11]: 55.6 µM
- GI50 [12]: 2.26 µM
- TGI [12]: 5.03 µM
- GI50 [13]: 5.61 µM
- TGI [13]: 18.3 µM
- GI50 [14]: 2.36 µM
- TGI [14]: 4.6 µM
- GI50 [15]: 12.2 µM
- TGI [15]: 33.1 µM
- GI50 [16]: 4.16 µM
- TGI [16]: 16.1 µM
- GI50 [58]: 11.1 µM
- TGI [58]: 23.4 µM
- GI50 [17]: 6.4 µM
- TGI [17]: 19.3 µM
- GI50 [18]: 5.01 µM
- TGI [18]: 18.3 µM
- GI50 [19]: 1.73 µM
- TGI [19]: 4.36 µM
- GI50 [20]: 5.59 µM
- TGI [20]: 21.2 µM
- GI50 [21]: 2.34 µM
- TGI [21]: 6.32 µM
- GI50 [22]: 5.32 µM
- TGI [22]: 25.5 µM
- GI50 [23]: 3.66 µM
- TGI [23]: 13.1 µM
- GI50 [24]: 5.07 µM
- TGI [24]: 18.9 µM
- GI50 [25]: 2.29 µM
- TGI [25]: 6 µM
- GI50 [27]: 2.8 µM
- TGI [27]: 6.63 µM
- GI50 [28]: 2.9 µM
- TGI [28]: 10.3 µM
- GI50 [29]: 2.17 µM
- TGI [29]: 3.89 µM
- GI50 [30]: 7.09 µM
- TGI [30]: 20 µM
- GI50 [31]: 2.89 µM
- TGI [31]: 10.9 µM
- GI50 [33]: 4.03 µM
- TGI [33]: 14.4 µM
- GI50 [34]: 12 µM
- TGI [34]: 34.7 µM
- GI50 [35]: 16.5 µM
- TGI [35]: 31 µM
- GI50 [36]: 1.79 µM
- TGI [36]: 3.34 µM
- GI50 [37]: 4.28 µM
- TGI [37]: 15.1 µM
- GI50 [38]: 4.7 µM
- TGI [38]: 17.8 µM
- GI50 [39]: 2.16 µM
- TGI [39]: 3.78 µM
- GI50 [41]: 1.77 µM
- TGI [41]: 3.26 µM
- GI50 [42]: 4.62 µM
- TGI [42]: 16.5 µM
- GI50 [43]: 2.11 µM
- TGI [43]: 4.31 µM
- GI50 [44]: 2.65 µM
- TGI [44]: 6.39 µM
- GI50 [45]: 2.41 µM
- TGI [45]: 7.25 µM
- GI50 [46]: 7.59 µM
- TGI [46]: 22.7 µM
- GI50 [47]: 17.2 µM
- TGI [47]: 31.4 µM
- GI50 [48]: 13.9 µM
- TGI [48]: 27.5 µM
- GI50 [49]: 4.21 µM
- TGI [49]: 15.2 µM
- GI50 [50]: 5.11 µM
- TGI [50]: 21.1 µM
- GI50 [51]: 2.89 µM
- TGI [51]: 11.7 µM
- GI50 [52]: 3.17 µM
- TGI [52]: 14.5 µM
- GI50 [53]: 5.76 µM
- TGI [53]: 22 µM
- GI50 [54]: 3.68 µM
- TGI [54]: 12.6 µM
- GI50 [55]: 3.25 µM
- TGI [55]: 11.1 µM
- GI50 [56]: 4.33 µM
- TGI [56]: 18.5 µM
- GI50 [57]: 6.86 µM
- TGI [57]: 23.3 µM
